Assay [1] concerns hES-MSCs. Kind of assay: CFU-F assay of FreSH-Tracer-sorted hES-MSCs. It counts as cell-based, human. The method, then: Main factors for determining the therapeutic efficacy of hBM-MSCs, namely a colony forming unit-fibroblast (CFU-F) and a graft survival rate, were evaluated in cell culture models.
In order to test whether direct control of a GSH level in stem cells leads to change in cell functions, hES-MSCs sorted by FreSH-Tracer were treated with buthionine sulfoximine (BSO; glutathione synthesis inhibitor) and glutathione ethyl ester (GSH-EE). When GSH was decreased in cells by treating GSH^High cells with BSO (80 μM, 24 h), it was confirmed that CFU-F increased, and on the other hand, when GSH was increased by treating GSH^Low cells with GSH-EE (1 mM, 2 h), it was confirmed that CFU-F decreased (FIG. 13A). In addition, it was confirmed that, when hES-MSCs which were not sorted by FreSH-Tracer were treated with BSO or GSH-EE, PDGF-AA-induced cell migration capacity was decreased or increased, respectively (FIG. 13B).

In assay [2] the test system is hUC-MSCs. As to the kind of experiment: CFU-F assay of hUC-MSCs. It counts as cell-based, human. Particulars: n=3. The method, then: (§1) The inventors observed an effect of the material on stem cells by treating each stem cells with a material for enhancing a glutathione evaluation parameter. When hUC-MSCs were subcultured in a L-AA2G-containing medium, CFU-F, migration capacity, and an anti-inflammatory effect were observed. A CFU-F assay (n=3) was performed by treating hUC-MSCs with 125 or 250 μg/mL of AA2G for three days. As shown in FIGS. 16A and 16B, it was confirmed that, when AA2G was treated, CFU-F increased. In addition, as hUC-MSCs were treated with 125 or 250 μg/mL of AA2G for three days, PDGF-AA-induced migration capacity (n=3) was analyzed. As shown in FIGS. 17A and 17B, it was confirmed that the migration capacity was increased by AA2G treatment. In addition, the reduction in T cell proliferation, the reduction in T cell differentiation, and the promotion of Treg cell differentiation were observed by treating hUC-MSCs with 125 or 250 μg/mL of AA2G for three days. […] Meanwhile, hUC-MSCs were cultured with a glutathione precursor such as γ-glutamyl cysteine (GGC, 0.1, 0.25, and 0.5 mM). A CFU-F assay (n=3) was performed by treating hUC-MSCs with each concentration of GGC for 2 hours. […] In addition, SDF1α and PDGF-AA-induced migration capacities (n=3) were analyzed for hUC-MSCs without treatment with GGC, and SDF1α and PDGF-AA-induced migration abilities (n=3) were analyzed by treating hUC-MSCs with the increasing concentrations of GGC. STI571 was used as a PDGFR kinase inhibitor. As shown in FIGS. 20A to 20C, it was confirmed that, according to an increase in GGC treatment concentration, SDF1α- and PDGF-AA-induced migration capacities were enhanced. A CFU-F assay (n=3) was performed by treating hUC-MSCs with 0.2, 1, 2, and 4 μM ferrostatin-1 and 0.1, 0.5, 1, and 2 μM liproxstatin-1 for 24 hours.

Assay [3] deals with hUC-MSCs. As to the kind of experiment: SDF1α- and PDGF-AA-induced migration capacity of hUC-MSCs. It counts as cell-based, human. The settings on record: increasing GGC treatment concentration (0.1, 0.25 mM), n=3. The method, then:
as §1, with “mM).” for “mM). A CFU-F assay (n=3) was performed by treating hUC-MSCs with each concentration of GGC for 2 hours.”, “STI571 was used as a PDGFR kinase inhibitor. As shown in FIGS. 20A to 20C, it was confirmed that, according to an increase in GGC treatment concentration, SDF1α- and PDGF-AA-induced migration capacities were enhanced. A CFU-F assay (n=3) was performed by treating hUC-MSCs with 0.2, 1, 2, and 4 μM ferrostatin-1 and 0.1, 0.5, 1, and 2 μM liproxstatin-1 for 24 hours.” left out

Assay [4] relates to T cells. Kind of assay: Anti-inflammatory effect of treated hUC-MSCs on T cells. The settings on record: for anti-inflammatory effect of the hUC-MSCs: ferrostatin-1 1 μM 24 h, GGC 0.2 mM 2 h, FIGS. 27, 28A to 28C; for T cell differentiation capacity / T cell proliferation ability / Treg cell differentiation: hUC-MSCs treated with 1 μM ferrostatin-1 24 h, 0.2 mM GGC 2 h, 2 mM GSH-EE 2 h. It counts as cell-based. The method, then:
The inventors observed an effect of the material on stem cells by treating each stem cells with a material for enhancing a glutathione evaluation parameter. When hUC-MSCs were subcultured in a L-AA2G-containing medium, CFU-F, migration capacity, and an anti-inflammatory effect were observed. A CFU-F assay (n=3) was performed by treating hUC-MSCs with 125 or 250 μg/mL of AA2G for three days. As shown in FIGS. 16A and 16B, it was confirmed that, when AA2G was treated, CFU-F increased. In addition, as hUC-MSCs were treated with 125 or 250 μg/mL of AA2G for three days, PDGF-AA-induced migration capacity (n=3) was analyzed. As shown in FIGS. 17A and 17B, it was confirmed that the migration capacity was increased by AA2G treatment. In addition, the reduction in T cell proliferation, the reduction in T cell differentiation, and the promotion of Treg cell differentiation were observed by treating hUC-MSCs with 125 or 250 μg/mL of AA2G for three days.
In addition, hUC-MSCs were cultured with ferrostatin-1 (0.2, 1, 2 and 4 μM) and liproxstatin-1 (0.1, 0.5, 1 and 2 μM), which control a glutathione level in cells by inhibiting lipid oxidation. […] Meanwhile, the hUC-MSCs were treated with 1 μM ferrostatin-1 for 24 hours, 0.2 mM GGC for 2 hours, and 2 mM GSH-EE for 2 hours. As a result, the reduction in T cell proliferation ability and the reduction in T cell differentiation capacity were observed, and promotion of Treg cell differentiation was observed.

For assay [5], the system named is hUC-MSCs. As to the kind of experiment: Oxidative stress resistance capacity (ORC) analysis in hUC-MSCs with RSL3. The settings on record: hUC-MSCs; liproxstatin-1 0, 2.5, 5 or 10 μM; RSL3 0, 0.5 or 1 μM; the higher the concentration. It counts as cell-based, human. On the procedure:
GRC refers to a value obtained by real-time monitoring of FR after living cells are treated with an oxidizing agent, as calculated by dividing a value obtained by subtracting AUC of a group treated with 0.1-100 mM N-ethylmaleimide (NEM) from FR AUC of an oxidizing agent (diamide, H2O2, etc.)-treated group by a value obtained by subtracting the AUC of NEM-treated group from AUC of the untreated control, and multiplying the resulting value by 100. The FR of the NEM-treated group is a value for increasing the sensitivity of a GRC value by treating it as the blank value of the FR of the cells of interest. […] To remove the MitoFreSH-Tracer from the medium before measurement, the medium was exchanged with fresh 10 mM HEPES-containing HBSS(Hanks' Balanced Salt Solution), and a fluorescence image was obtained using a confocal imaging system, Operetta. By comparing GSH levels quantified from control cells not treated with RSL3 or control cells before treated with RSL3, the distribution of GSH expression-changed cells was calculated. Based on the point where the distribution histogram is divided into two peaks, the cells were divided into GSH^High cells (right peak) and GSH^Low cells (left peak), and then a ratio of corresponding cells was expressed as a percentage (%). […]

For the compound `CCCCS(=N)(=O)CCC(N)C(=O)O` (centres unmarked) [BSO, buthionine sulfoximine], in assay [1] (GSH^High hES-MSCs treated with BSO 80 μM, 24 h), the CFU-F entry was “increased”.

In the case of `N[C@@H](CCC(=O)N[C@@H](CS)C(=O)O)C(=O)O` [GGC, γ-glutamyl cysteine], in assay [2] (GGC 0.1, 0.25 and 0.5 mM for 2 hours), the CFU-F entry is given as “increased”. Besides, the “SDF1α- and PDGF-AA-induced migration capacities” value in assay [3] was “enhanced”. In assay [4], the “anti-inflammatory effect of the hUC-MSCs” value was “no change”, the “T cell differentiation capacity” value is on record as “reduction”, the “T cell proliferation ability” value is “reduction” and the Treg cell differentiation result is reported as “promotion”.

For `CCOC(=O)CNC(=O)[C@H](CS)NC(=O)CC[C@H](N)C(=O)O` [GSH-EE, glutathione ethyl ester], the CFU-F entry in assay [1] (GSH^Low hES-MSCs treated with GSH-EE 1 mM, 2 h) is recorded as “decreased”. Moreover, in assay [4], the “T cell differentiation capacity” value is listed as “reduction”, the “T cell proliferation ability” value is on record as “reduction” and the Treg cell differentiation result was “promotion”.

`Clc1cccc(CN=C2Nc3ccccc3NC23CCNCC3)c1` [liproxstatin-1]: the “ORC: ratio of the GSH^High cells” value in assay [5] was “increased”. For the same compound, the CFU-F result in assay [2] (ferrostatin-1 0.2, 1, 2 and 4 μM, liproxstatin-1 0.1, 0.5, 1 and 2 μM, 24 hours) is on record as “improved”. The “anti-inflammatory effect of the hUC-MSCs” value in assay [4] is reported as “did not alter”.

These data come from patent US11499978B2, “Method for measuring quality of therapeutic cell through real-time glutathione measurement” (CELL2IN, INC., priority 2017, dated 2022).
